Experiments:
[1] = tested on: breast line MDA468; test: In vitro cell culture growth assay (MTS), MDA468; type: cell-based, human; conditions: MDA468 cells, three days after drug treatment
Outline: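 MDA468 or LNCap cells received inhibitors one day after plating and were grown for three days. Viable cell density read by MTS conversion, absorbance 490 nm, expressed as percent of control growth versus vehicle-treated cells on the same plate.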

[2] = tested on: prostate line LNCap; test: In vitro cell culture growth assay (MTS), LNCap; type: cell-based, human; conditions: LNCap cells, three days after drug treatment
[3] = biological target: PI3K (Homo sapiens, UniProt P42336); test: Fluorescence polarization assay for PI3K; type: biochemical; conditions: PI3Kα; read-out: PI3Kα IC50;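 note: PI3K kinase reaction on PIP2 with ATP, 30-60 min, product sensed by GST-GRP with red probe in fluorescence polarization (mP), controls without enzyme and at zero time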
Sequence of PI3K (P42336 whole entry): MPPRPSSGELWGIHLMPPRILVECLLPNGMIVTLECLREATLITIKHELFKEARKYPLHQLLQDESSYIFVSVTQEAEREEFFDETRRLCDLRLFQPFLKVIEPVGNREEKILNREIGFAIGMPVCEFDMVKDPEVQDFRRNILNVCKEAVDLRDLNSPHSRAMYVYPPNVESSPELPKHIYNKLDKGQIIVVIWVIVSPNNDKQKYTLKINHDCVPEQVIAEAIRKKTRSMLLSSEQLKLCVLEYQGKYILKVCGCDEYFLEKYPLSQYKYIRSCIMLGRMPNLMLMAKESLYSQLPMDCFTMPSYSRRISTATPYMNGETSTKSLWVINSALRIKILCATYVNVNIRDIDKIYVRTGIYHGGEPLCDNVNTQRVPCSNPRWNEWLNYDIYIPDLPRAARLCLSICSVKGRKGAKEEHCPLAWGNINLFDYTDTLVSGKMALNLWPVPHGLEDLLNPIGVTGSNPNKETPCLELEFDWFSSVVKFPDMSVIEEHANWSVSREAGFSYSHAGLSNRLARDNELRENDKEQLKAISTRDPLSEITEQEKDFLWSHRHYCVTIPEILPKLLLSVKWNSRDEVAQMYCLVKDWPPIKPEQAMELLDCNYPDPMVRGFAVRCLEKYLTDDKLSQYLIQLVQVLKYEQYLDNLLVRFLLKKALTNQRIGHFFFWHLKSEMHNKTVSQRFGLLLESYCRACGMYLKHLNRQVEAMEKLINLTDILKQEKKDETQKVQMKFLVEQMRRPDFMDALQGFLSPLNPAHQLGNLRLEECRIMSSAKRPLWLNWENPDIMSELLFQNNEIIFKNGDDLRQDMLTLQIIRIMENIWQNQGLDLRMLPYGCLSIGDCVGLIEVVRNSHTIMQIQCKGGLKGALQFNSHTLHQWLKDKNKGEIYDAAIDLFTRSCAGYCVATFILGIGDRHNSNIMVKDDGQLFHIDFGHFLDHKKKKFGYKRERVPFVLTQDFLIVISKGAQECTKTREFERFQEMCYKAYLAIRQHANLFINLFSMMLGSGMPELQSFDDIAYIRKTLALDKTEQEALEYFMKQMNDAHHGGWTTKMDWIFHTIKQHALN
Sequence of PI3K (P27986 whole entry partner): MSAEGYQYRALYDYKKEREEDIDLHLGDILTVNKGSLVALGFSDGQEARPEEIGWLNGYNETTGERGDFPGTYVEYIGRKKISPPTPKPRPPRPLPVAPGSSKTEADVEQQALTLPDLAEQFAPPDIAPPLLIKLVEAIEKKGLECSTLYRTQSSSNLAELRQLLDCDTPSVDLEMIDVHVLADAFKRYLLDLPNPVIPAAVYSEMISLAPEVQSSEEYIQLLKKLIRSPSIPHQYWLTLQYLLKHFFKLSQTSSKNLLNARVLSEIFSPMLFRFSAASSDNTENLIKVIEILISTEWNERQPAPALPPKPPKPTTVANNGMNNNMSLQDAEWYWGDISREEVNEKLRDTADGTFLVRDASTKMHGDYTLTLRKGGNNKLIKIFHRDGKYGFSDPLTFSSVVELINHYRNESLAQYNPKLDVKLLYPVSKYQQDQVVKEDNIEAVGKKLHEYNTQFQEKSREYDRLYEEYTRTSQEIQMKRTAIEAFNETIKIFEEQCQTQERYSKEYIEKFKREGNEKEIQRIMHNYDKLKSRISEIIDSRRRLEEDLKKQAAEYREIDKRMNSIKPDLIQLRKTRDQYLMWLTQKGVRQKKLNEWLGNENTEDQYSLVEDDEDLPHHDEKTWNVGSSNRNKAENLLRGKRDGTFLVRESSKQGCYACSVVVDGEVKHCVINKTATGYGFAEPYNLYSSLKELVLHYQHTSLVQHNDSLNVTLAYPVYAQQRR

| Compound | IC50 ([2]; Homo sapiens, LNCaP, 72 h) [nM] | IC50 [3] [nM] | IC50 [2] [nM] | IC50 ([1]; Homo sapiens, 72 h) [nM] | IC50 [1] [nM] |
| --- | --- | --- | --- | --- | --- |
| c1ccc(CN2CCC(n3ncc4c(N5CCOCC5)nc(-c5ccc6[nH]ccc6c5)nc43)CC2)cc1 [Example 45] | 1400 | 1010 |  | 1900 |  |
| CNC(=O)Nc1ccc(-c2nc(N3CCOCC3)c3cnn(C4CCC(O)CC4)c3n2)cc1 (stereo not drawn) [Compound 568, 1-{4-[1-(4-hydroxycyclohexyl)-4-morpholin-4-yl-1H-pyrazolo[3,4-d]pyrimidin-6-yl]phenyl}-3-methylurea] | 54 | 39 |  | 240 |  |
| c1ccc(-n2ncc3c(N4CCOCC4)nc(-c4ccc5occc5c4)nc32)cc1 [Compound 117] | 60000 | 699 |  | 60000 |  |
| CNC(=O)Nc1ccc(-c2nc(N3C[C@@H](C)O[C@@H](C)C3)c3cnn(C4CCN(Cc5cccnc5)CC4)c3n2)cc1 [Compound 941, 1-(4-{4-[(2R,6S)-2,6-dimethylmorpholin-4-yl]-1-[1-(pyridin-3-ylmethyl)piperidin-4-yl]-1H-pyrazolo[3,4-d]pyrimidin-6-yl}phenyl)-3-methylurea] | 2000 | 3880 |  | 9000 |  |
| c1ccc(CN2CCC(n3ncc4c(N5CCOCC5)nc(-c5cn[nH]c5)nc43)CC2)cc1 [Compound 189] | 3200 | 765 |  | 8300 |  |
| NS(=O)(=O)c1cccc(-c2nc(N3CCOCC3)c3cnn(C4CCN(Cc5ccccc5)CC4)c3n2)c1 [Compound 83] | 4000 | 2410 |  | 7000 |  |
| OCCN1CCC(n2ncc3c(N4CCOCC4)nc(-c4ccc5[nH]ccc5c4)nc32)CC1 [Compound 496, 2-{4-[6-(1H-indol-5-yl)-4-morpholin-4-yl-1H-pyrazolo[3,4-d]pyrimidin-1-yl]piperidin-1-yl}ethanol] | 1800 | 3990 |  | 3000 |  |
| CNC(=O)Nc1ccc(-c2nc(N3CCOCC3)c3cnn(C4CCC5(CC4)OCCO5)c3n2)cc1 [Example 321, 1-{4-[1-(1,4-dioxaspiro[4.5]dec-8-yl)-4-morpholin-4-yl-1H-pyrazolo[3,4-d]pyrimidin-6-yl]phenyl}-3-methylurea] | 27 | 74 |  | 100 |  |
| CN(C)CCCn1ncc2c(N3CCOCC3)nc(-c3cccc(O)c3)nc21 [Compound 163] | 1500 | 60 |  | 6000 |  |
| O=C(NO)Nc1ccc(-c2nc(N3CCOCC3)c3cnn(-c4ccccc4)c3n2)cc1 [Compound 539, 1-hydroxy-3-[4-(4-morpholin-4-yl-1-phenyl-1H-pyrazolo[3,4-d]pyrimidin-6-yl)phenyl]urea] | 480 | 211 |  | 1100 |  |
| CCNC(=O)Nc1ccc(-c2nc(N3CCOC[C@H]3C)c3cnn(C4CCN(C(=O)OCC)CC4)c3n2)cc1 [Compound 889, ethyl 4-(6-{4-[(ethylcarbamoyl)amino]phenyl}-4-[(3R)-3-methylmorpholin-4-yl]-1H-pyrazolo[3,4-d]pyrimidin-1-yl)piperidine-1-carboxylate] | 19 | 4360 |  | 600 |  |
| NCC(=O)Nc1ccc(-c2nc(N3CCOCC3)c3cn[nH]c3n2)cc1 [Compound 282, N-[4-(4-morpholin-4-yl-1H-pyrazolo[3,4-d]pyrimidin-6-yl)phenyl]glycinamide] | 9000 | 128 |  | 11000 |  |
| CC(C)OC(=O)N1CCC(n2ncc3c(N4CCOCC4)nc(-c4ccc(N)cc4)nc32)CC1 [Compound 830, isopropyl 4-[6-(4-aminophenyl)-4-morpholin-4-yl-1H-pyrazolo[3,4-d]pyrimidin-1-yl]piperidine-1-carboxylate] | 1800 | 12000 |  | 16000 |  |
| O=C(NO)Nc1ccc(-c2nc(N3CCOCC3)c3cnn(-c4ccccc4)c3n2)cc1 [Example 293, 1-hydroxy-3-[4-(4-morpholin-4-yl-1-phenyl-1H-pyrazolo[3,4-d]pyrimidin-6-yl)phenyl]urea] | 480 | 211 |  | 1100 |  |

Second part, led by results:

| IC50 ([2]; Homo sapiens, LNCaP, 72 h) [nM] | IC50 [3] [nM] | IC50 [2] [nM] | Compound | IC50 ([1]; Homo sapiens, 72 h) [nM] | IC50 [1] [nM] |
| --- | --- | --- | --- | --- | --- |
| < 27 | 338 |  | O=C(NCCF)Nc1ccc(-c2nc(N3CCOCC3)c3cnn(C4CCN(Cc5cccnc5)CC4)c3n2)cc1 [Compound 560, 1-(2-fluoroethyl)-3-(4-{4-morpholin-4-yl-1-[1-(pyridin-3-ylmethyl)piperidin-4-yl]-1H-pyrazolo[3,4-d]pyrimidin-6-yl}phenyl)urea] | 27 |  |
| 200 | 82 |  | NC(=O)Nc1ccc(-c2nc(N3CCOCC3)c3cnn(C4CCN(Cc5cccnc5)CC4)c3n2)cc1 [Compound 558, 1-(4-{4-morpholin-4-yl-1-[1-(pyridin-3-ylmethyl)piperidin-4-yl]-1H-pyrazolo[3,4-d]pyrimidin-6-yl}phenyl)urea] | 200 |  |
| 200 | 82 |  | NC(=O)Nc1ccc(-c2nc(N3CCOCC3)c3cnn(C4CCN(Cc5cccnc5)CC4)c3n2)cc1 [Example 313, 1-(4-{4-morpholin-4-yl-1-[1-(pyridin-3-ylmethyl)piperidin-4-yl]-1H-pyrazolo[3,4-d]pyrimidin-6-yl}phenyl)urea] | 200 |  |
| 10000 | 398 |  | NNC(=O)Nc1ccc(-c2nc(N3CCOCC3)c3cnn(C4CCN(C(=O)c5cccnc5)CC4)c3n2)cc1 [Example 306, N-(4-{4-morpholin-4-yl-1-[1-(pyridin-3-ylcarbonyl)piperidin-4-yl]-1H-pyrazolo[3,4-d]pyrimidin-6-yl}phenyl)hydrazinecarboxamide] | 14000 |  |
| 900 | 1620 |  | CCNC(=O)Nc1ccc(-c2nc(N3CCOCC3)c3cnn(C4CCN(C(=O)c5cccnc5)CC4)c3n2)c(F)c1 [Example 462, 1-ethyl-3-(3-fluoro-4-{4-morpholin-4-yl-1-[1-(pyridin-3-ylcarbonyl)piperidin-4-yl]-1H-pyrazolo[3,4-d]pyrimidin-6-yl}phenyl)urea] | 900 |  |
| 220 | 450 |  | CC(C)OC(=O)N1CCC(n2ncc3c(N4CCOCC4)nc(-c4ccc(NC(=O)NCCO)cc4)nc32)CC1 [Compound 834, isopropyl 4-[6-(4-{[(2-hydroxyethyl)carbamoyl]amino}phenyl)-4-morpholin-4-yl-1H-pyrazolo[3,4-d]pyrimidin-1-yl]piperidine-1-carboxylate] | 180 |  |
| 45 | 90 |  | CNC(=O)Nc1ccc(-c2nc(N3CCOCC3)c3cnn(C4CCN(Cc5cccnc5Cl)CC4)c3n2)cc1 [Example 390, 1-[4-(1-{1-[(2-chloropyridin-3-yl)methyl]piperidin-4-yl}-4-morpholin-4-yl-1H-pyrazolo[3,4-d]pyrimidin-6-yl)phenyl]-3-methylurea] | 100 |  |
| 170 | 266 |  | COC(=O)N1CCC(n2ncc3c(N4CCOCC4)nc(-c4ccc(NC(=O)Nc5cccnc5F)cc4)nc32)CC1 [Compound 863, methyl 4-[6-(4-{[(2-fluoropyridin-3-yl)carbamoyl]amino}phenyl)-4-morpholin-4-yl-1H-pyrazolo[3,4-d]pyrimidin-1-yl]piperidine-1-carboxylate] | 680 |  |
| 60 | 434 |  | CCNC(=O)Nc1ccc(-c2nc(N3CCOCC3)c3cnn(C4CCN(C(=O)c5cccnc5)CC4)c3n2)cc1 [Example 307, 1-ethyl-3-(4-{4-morpholin-4-yl-1-[1-(pyridin-3-ylcarbonyl)piperidin-4-yl]-1H-pyrazolo[3,4-d]pyrimidin-6-yl}phenyl)urea] | 200 |  |
| 30 | 29 |  | CC(C)C(=O)N1CCC(n2ncc3c(N4CCOCC4)nc(-c4ccc(NC(=O)Nc5ccccc5)cc4)nc32)CC1 [Compound 826, 1-{4-[1-(1-isobutyrylpiperidin-4-yl)-4-morpholin-4-yl-1H-pyrazolo[3,4-d]pyrimidin-6-yl]phenyl}-3-phenylurea] | 110 |  |
| 1300 | 154 |  | O=C(Nc1ccc(-c2nc(N3CCOCC3)c3cnn(C4CCNCC4)c3n2)cc1)Nc1ccccn1 [Compound 778, 1-[4-(4-morpholin-4-yl-1-piperidin-4-yl-1H-pyrazolo[3,4-d]pyrimidin-6-yl)phenyl]-3-pyridin-2-ylurea] | 1600 |  |
|  | 209 | 200 | CNC(=O)Nc1ccc(-c2nc(N3CCOCC3)c3cnn(C4CCN(C(=O)N(C)C)CC4)c3n2)cc1 [Compound 717, N,N-dimethyl-4-(6-{4-[(methylcarbamoyl)amino]phenyl}-4-morpholin-4-yl-1H-pyrazolo[3,4-d]pyrimidin-1-yl)piperidine-1-carboxamide] |  | 480 |
| 7500 | 220 |  | O=C(NCCO)Nc1ccc(-c2nc(N3CCOCC3)c3cnn(C4CCN(C(=O)c5cccnc5)CC4)c3n2)cc1 [Example 304, 1-(2-hydroxyethyl)-3-(4-{4-morpholin-4-yl-1-[1-(pyridin-3-ylcarbonyl)piperidin-4-yl]-1H-pyrazolo[3,4-d]pyrimidin-6-yl}phenyl)urea] | 9000 |  |
| 2400 | 688 |  | CCNC(=S)N1CCC(n2ncc3c(N4CCOCC4)nc(-c4ccc(NC(=O)OC)cc4)nc32)CC1 [Compound 812, methyl [4-(1-{1-[(ethylamino)carbonothioyl]piperidin-4-yl}-4-morpholin-4-yl-1H-pyrazolo[3,4-d]pyrimidin-6-yl)phenyl]carbamate] | 3000 |  |
| 680 | 273 |  | CCONC(=O)Nc1ccc(-c2nc(N3CCOCC3)c3cnn(C4CCN(Cc5ccccc5)CC4)c3n2)cc1 [Compound 533, 1-{4-[1-(1-benzylpiperidin-4-yl)-4-morpholin-4-yl-1H-pyrazolo[3,4-d]pyrimidin-6-yl]phenyl}-3-ethoxyurea] | 160 |  |
